The source of these data is US8586505B2 (SDS Biotech K. K., priority 2009, dated 2013).

The subject of one data set is Phytophthora infestans. The data set can be described thus: whole plant or invertebrate. To be noted: in Solanum lycopersicum, 96 h, read-out: Determination of control effect (preventive value). The class given is in vivo.
Data set [1] relates to Pseudoperonospora cubensis. The data set can be described thus: Test of examining control effect on Pseudoperonospora cubensis (potted cucumber plants). The class given is in vivo. To be noted: 96 h, 10% wettable powder adjusted to 125 ppm, 15 ml/pot sprayed on potted cucumber plants one day before spray inoculation, assessed after 1 day wet chamber and 3 days greenhouse, read-out: Determination of control effect (preventive value) on Pseudoperonospora cubensis. In short, it runs like this:
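Preventive treatment: 125 ppm sample agent solution (from 10% wettable powder) sprayed at 15 ml/pot on 2.5-leaf Sagamihanjiro cucumbers, then P. cubensis inoculated next day at 1.0×10^4 cells/ml. Incubation was 1 day wet at 21° C plus 3 days greenhouse. Lesion area rate compared with untreated gives preventive value (≥60% high).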

For another data set, the system named is Sphaerotheca fuliginea. Briefly: Test of examining control effect on Sphaerotheca fuliginea (potted cucumber plants). It counts as in vivo. To be noted: Podosphaera fuliginea, 336 h; 10% wettable powder adjusted to 125 ppm, 15 ml/pot sprayed on potted cucumber plants one day before spray inoculation; assessed after 14 days in greenhouse; read-out: Determination of control effect (preventive value) on Sphaerotheca fuliginea. The method in brief:
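Control effect rated high at preventive value 60–100% and low below 60%, from lesion area relative to untreated plants 14 days after spray inoculation with S. fuliginea (1.0×10^5 cells/ml). Compound applied at 125 ppm as wettable-powder spray one day before inoculation, on 2nd-leaf-stage Sagamihanjiro cucumber.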

What is called melting point is the temperature of the solid-liquid transition. With `CC(C)[Si](C#CCCNc1ncnc2sccc12)(C(C)C)C(C)C` [compound 4], the melting point lay in the range of 196 to 198 °C. Moreover, the pest or weed control at 125 ppm in the data set on Phytophthora infestans is 0 to 60%. Besides, the pest or weed control at 125 µg/mL in data set [1] fell in the range of 0 to 60%. Also, the pest or weed control at 125 µg/mL in the data set with Sphaerotheca fuliginea lay in the range of 0 to 60%.
In turn, `CC(C)(C)[Si](C)(C)C#CCCNc1ncnc2sccc12` [compound 5] registered a melting point of 190 to 192 °C. Moreover, the pest or weed control at 125 ppm with Phytophthora infestans is 0 to 60%. Moreover, the pest or weed control at 125 µg/mL in data set [1] lay within 60 to 100%. For the same molecule, the pest or weed control at 125 µg/mL in the data set on Sphaerotheca fuliginea lay in the range of 60 to 100%.
`Cc1cccc(C#CCCNc2ncnc3sccc23)c1` [compound 18] registered a melting point of 120 to 123 °C. For the same molecule, the pest or weed control at 125 ppm in the data set with Phytophthora infestans lay in the range of 0 to 60%. Moreover, the pest or weed control at 125 µg/mL in data set [1] lay within 60 to 100%. The pest or weed control at 125 µg/mL in the data set on Sphaerotheca fuliginea lay in the range of 60 to 100%.
As to `FC(F)(F)c1cccc(C#CCCNc2ncnc3sccc23)c1` [compound 26], the melting point was in the range of 123 to 125 °C. For the same molecule, the pest or weed control at 125 ppm in the data set with Phytophthora infestans lay within 0 to 60%. For the same molecule, the pest or weed control at 125 µg/mL in data set [1] lay within 60 to 100%. Also, the pest or weed control at 125 µg/mL in the data set on Sphaerotheca fuliginea fell in the range of 60 to 100%.
As to `FC(F)(F)c1cc(C#CCCNc2ncnc3sccc23)cc(C(F)(F)F)c1` [compound 28], the melting point fell in the range of 163 to 166 °C. Also, the pest or weed control at 125 ppm with Phytophthora infestans lay in the range of 0 to 60%. Besides, the pest or weed control at 125 µg/mL in data set [1] was in the range of 0 to 60%. For the same molecule, the pest or weed control at 125 µg/mL in the data set on Sphaerotheca fuliginea was 0 to 60%.
The molecule `C(#Cc1ccncc1)CCNc1ncnc2sccc12` [compound 57] yielded a melting point of 140 to 141 °C. Also, the pest or weed control at 125 ppm in the data set with Phytophthora infestans lay within 0 to 60%. For the same molecule, in data set [1], the pest or weed control at 125 µg/mL is 0 to 60%. In addition, the pest or weed control at 125 µg/mL with Sphaerotheca fuliginea was 0 to 60%.
In the case of `Cc1cc(C)nc(C#CCCNc2ncnc3sccc23)n1` [compound 59], the melting point lay in the range of 112 to 113 °C. The pest or weed control at 125 ppm in the data set with Phytophthora infestans was in the range of 0 to 60%. Besides, the pest or weed control at 125 µg/mL in data set [1] lay within 0 to 60%. In addition, the pest or weed control at 125 µg/mL with Sphaerotheca fuliginea was 0 to 60%.
For the molecule `C(#Cc1cncs1)CCNc1ncnc2sccc12` [compound 61], the melting point is 156 to 158 °C. The pest or weed control at 125 ppm with Phytophthora infestans was 60 to 100%. In addition, in data set [1], the pest or weed control at 125 µg/mL is 60 to 100%. Further, in the data set with Sphaerotheca fuliginea, the pest or weed control at 125 µg/mL lay within 60 to 100%.
`C(#Cc1nccs1)CCNc1ncnc2sccc12` [compound 62]: the melting point was in the range of 128 to 129 °C. In the data set on Phytophthora infestans, the pest or weed control at 125 ppm lay within 60 to 100%. For the same molecule, the pest or weed control at 125 µg/mL in data set [1] was in the range of 60 to 100%. In the data set on Sphaerotheca fuliginea, the pest or weed control at 125 µg/mL was in the range of 60 to 100%.
Regarding `C(#Cc1cscn1)CCNc1ncnc2sccc12` [compound 63], the melting point came out at 174 °C. Besides, the pest or weed control at 125 ppm with Phytophthora infestans lay within 60 to 100%. Besides, the pest or weed control at 125 µg/mL in data set [1] lay in the range of 60 to 100%. In addition, the pest or weed control at 125 µg/mL in the data set on Sphaerotheca fuliginea lay in the range of 60 to 100%.
`Cc1scnc1C#CCCNc1ncnc2sccc12` [compound 65] showed a melting point of 148 to 150 °C. Also, in the data set on Phytophthora infestans, the pest or weed control at 125 ppm was 60 to 100%. Further, the pest or weed control at 125 µg/mL in data set [1] lay in the range of 60 to 100%. For the same molecule, the pest or weed control at 125 µg/mL in the data set with Sphaerotheca fuliginea was 60 to 100%.
Take `Cc1nc(C#CCCNc2ncnc3sccc23)cs1` [compound 66]: the melting point lay in the range of 160 to 161 °C. Further, the pest or weed control at 125 ppm with Phytophthora infestans is 0 to 60%. Further, the pest or weed control at 125 µg/mL in data set [1] fell in the range of 60 to 100%. For the same molecule, the pest or weed control at 125 µg/mL with Sphaerotheca fuliginea was 0 to 60%.
Molecule `OCc1nc(C#CCCNc2ncnc3sccc23)cs1` [compound 70] returned a melting point of 193 °C. The pest or weed control at 125 ppm in the data set on Phytophthora infestans was 60 to 100%. The pest or weed control at 125 µg/mL in data set [1] was 60 to 100%. Besides, in the data set with Sphaerotheca fuliginea, the pest or weed control at 125 µg/mL is 60 to 100%.
The molecule `CC(=O)OCc1nc(C#CCCNc2ncnc3sccc23)cs1` [compound 73] showed a melting point of 128 to 129 °C. In addition, the pest or weed control at 125 ppm in the data set on Phytophthora infestans lay within 60 to 100%. In addition, the pest or weed control at 125 µg/mL in data set [1] is 60 to 100%. In addition, the pest or weed control at 125 µg/mL with Sphaerotheca fuliginea lay within 60 to 100%.
